The source of these data is ChEMBL document CHEMBL1145933, “Novel sst(4)-selective somatostatin (SRIF) agonists. 1. Lead identification using a betide scan” (J Med Chem, 2003).

Where a SMILES comes first, the peptide text is derived from it. Bridges are numbered along the chain shown (N, C = ends). [ ]: non-standard residue; d: D form.

Test [1] addresses Somatostatin receptor type 5 (Homo sapiens, UniProt P35346). The test can be described thus: Binding affinity towards human Somatostatin receptor type 5 using 125I-[Leu,DTrp,Tyr]SRIF-28 as radioligand.
Test [2] concerns the target Somatostatin receptor type 1 (Homo sapiens, UniProt P30872). The test can be described thus: Binding affinity towards human Somatostatin receptor type 1 using 125I-[Leu,DTrp,Tyr]SRIF-28 as radioligand.
The target in test [3] is Somatostatin receptor type 3 (Homo sapiens, UniProt P32745). The test can be described thus: Binding affinity towards human Somatostatin receptor type 3 using 125I-[Leu,DTrp,Tyr]SRIF-28 as radioligand.
In test [4] the target is Somatostatin receptor type 2 (Homo sapiens, UniProt P30874). The test can be described thus: Binding affinity towards human Somatostatin receptor type 2 using 125I-[Leu,DTrp,Tyr]SRIF-28 as radioligand.
In test [5] the target is Somatostatin receptor type 4 (Homo sapiens, UniProt P31391). The test can be described thus: Binding affinity towards human Somatostatin receptor type 4 using 125I-[Leu,DTrp,Tyr]SRIF-28 as radioligand.
Chain of Somatostatin receptor type 4 (P31391 whole entry): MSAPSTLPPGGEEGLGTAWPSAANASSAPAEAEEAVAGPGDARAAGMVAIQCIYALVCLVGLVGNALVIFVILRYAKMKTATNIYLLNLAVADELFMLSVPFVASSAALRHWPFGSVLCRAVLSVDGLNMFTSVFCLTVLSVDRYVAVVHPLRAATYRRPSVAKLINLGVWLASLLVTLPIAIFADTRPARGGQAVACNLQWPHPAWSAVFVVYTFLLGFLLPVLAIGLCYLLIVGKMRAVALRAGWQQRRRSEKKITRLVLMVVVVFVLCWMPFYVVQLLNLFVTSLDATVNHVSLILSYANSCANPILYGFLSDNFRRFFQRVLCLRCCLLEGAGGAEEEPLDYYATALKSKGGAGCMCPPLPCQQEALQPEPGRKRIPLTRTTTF

Chain of Somatostatin receptor type 2 (P30874 whole entry): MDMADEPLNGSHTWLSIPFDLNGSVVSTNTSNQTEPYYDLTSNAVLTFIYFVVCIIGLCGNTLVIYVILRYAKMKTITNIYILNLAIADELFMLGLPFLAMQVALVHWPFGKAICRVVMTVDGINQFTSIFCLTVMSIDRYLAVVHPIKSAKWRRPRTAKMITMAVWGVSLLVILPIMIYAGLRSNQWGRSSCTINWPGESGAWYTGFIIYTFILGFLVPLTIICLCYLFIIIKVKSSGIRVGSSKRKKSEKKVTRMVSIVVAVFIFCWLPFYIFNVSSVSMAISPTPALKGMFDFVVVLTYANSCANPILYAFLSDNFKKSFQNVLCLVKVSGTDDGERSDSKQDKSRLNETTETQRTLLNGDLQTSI
Chain of Somatostatin receptor type 3 (P32745 whole entry): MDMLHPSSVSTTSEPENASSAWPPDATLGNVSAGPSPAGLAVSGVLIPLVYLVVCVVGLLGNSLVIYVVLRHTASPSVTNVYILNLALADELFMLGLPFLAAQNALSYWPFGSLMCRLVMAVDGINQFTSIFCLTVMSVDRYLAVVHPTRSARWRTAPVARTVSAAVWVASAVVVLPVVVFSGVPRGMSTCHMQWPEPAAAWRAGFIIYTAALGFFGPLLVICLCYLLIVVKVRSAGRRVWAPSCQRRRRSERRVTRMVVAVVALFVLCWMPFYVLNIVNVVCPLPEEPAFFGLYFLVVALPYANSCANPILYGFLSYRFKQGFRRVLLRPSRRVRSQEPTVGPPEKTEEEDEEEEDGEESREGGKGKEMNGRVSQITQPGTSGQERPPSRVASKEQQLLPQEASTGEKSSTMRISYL
Chain of Somatostatin receptor type 1 (P30872 whole entry): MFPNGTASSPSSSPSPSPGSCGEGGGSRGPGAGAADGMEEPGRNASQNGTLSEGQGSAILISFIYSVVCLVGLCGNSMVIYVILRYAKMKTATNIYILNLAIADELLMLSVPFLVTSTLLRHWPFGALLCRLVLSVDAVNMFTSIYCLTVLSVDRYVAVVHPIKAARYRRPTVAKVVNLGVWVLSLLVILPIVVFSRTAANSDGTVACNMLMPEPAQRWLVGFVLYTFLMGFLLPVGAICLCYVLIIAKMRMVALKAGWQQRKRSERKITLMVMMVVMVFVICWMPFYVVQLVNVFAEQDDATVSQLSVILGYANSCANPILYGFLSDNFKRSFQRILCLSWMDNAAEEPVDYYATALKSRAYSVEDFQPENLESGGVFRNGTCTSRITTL
Chain of Somatostatin receptor type 5 (P35346 whole entry): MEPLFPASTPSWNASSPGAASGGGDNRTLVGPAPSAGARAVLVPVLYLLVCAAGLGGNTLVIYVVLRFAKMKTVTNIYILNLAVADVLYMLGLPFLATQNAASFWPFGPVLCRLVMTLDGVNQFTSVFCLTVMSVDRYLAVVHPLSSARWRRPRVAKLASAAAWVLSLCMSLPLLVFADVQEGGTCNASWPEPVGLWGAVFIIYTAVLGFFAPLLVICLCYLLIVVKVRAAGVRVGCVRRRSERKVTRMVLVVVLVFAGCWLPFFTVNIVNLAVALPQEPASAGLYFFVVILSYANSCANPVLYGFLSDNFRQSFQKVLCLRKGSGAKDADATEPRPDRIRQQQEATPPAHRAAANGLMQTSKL

As a reminder, the IC50 is the concentration that gives 50% inhibition. A higher IC50 goes with lower potency. On to `C[C@@H](O)[C@@H]1NC(=O)[C@@H](N(C)C(=O)CCN)NC(=O)[C@@H](Cc2c[nH]c3ccccc23)NC(=O)[C@H](Cc2ccccc2)NC(=O)[C@H](Cc2ccccc2)NC(=O)[C@@H](N)CSSC[C@@H](C(=O)O)NC(=O)[C@H](Cc2ccccc2)NC1=O`, for which the IC50 in test [1] was > 1000 nM; in test [2], > 10000 nM; in test [3] it was > 1000 nM; in test [4] it was > 10000 nM; in test [5] it was 429 nM.
Turning to `C[C@@H](O)[C@@H]1NC(=O)[C@H](CCCCN)NC(=O)[C@@H](Cc2c[nH]c3ccccc23)NC(=O)[C@H](Cc2ccccc2)NC(=O)[C@H](Cc2ccccc2)NC(=O)[C@@H](N)CSSC[C@@H](C(=O)O)NC(=O)[C@@H](N(C)C(=O)c2ccccc2)NC1=O`, the IC50 in test [1] is > 1000 nM; in test [2], > 10000 nM; in test [3], > 1000 nM; in test [4], > 1000 nM; in test [5], 80 nM.
Turning to `COC(=O)[C@H](CCCN=C(N)N)NC(=O)CCCc1c(-c2ccccc2)[nH]c2c(F)cc(F)cc12`, the IC50 in test [1] was > 10000 nM; in test [2], > 1000 nM; in test [3], > 1000 nM; in test [4], > 1000 nM.
On to `C[C@@H](O)[C@@H]1NC(=O)[C@H](CCCCN)NC(=O)[C@@H](Cc2c[nH]c3ccccc23)NC(=O)[C@H](Cc2ccccc2)NC(=O)[C@H](Cc2ccccc2)NC(=O)[C@@H](N)CSSC[C@@H](C(=O)O)NC(=O)[C@H](N(C)C(=O)c2ccccc2)NC1=O`, for which the IC50 in test [1] is 220 nM; in test [2], > 10000 nM; in test [3] it was 235 nM; in test [4], 455 nM; in test [5] it was 6.9 nM.
In the case of `C[C@@H](O)[C@@H]1NC(=O)[C@H](N(C)C(=O)CCN)NC(=O)[C@@H](Cc2c[nH]c3ccccc23)NC(=O)[C@H](Cc2ccccc2)NC(=O)[C@H](Cc2ccccc2)NC(=O)[C@@H](N)CSSC[C@@H](C(=O)O)NC(=O)[C@H](Cc2ccccc2)NC1=O`, the half-maximal inhibitory concentration (IC50) in test [1], in test [2], in test [3], in test [4] and in test [5] was > 1000 nM throughout.
Consider `C[C@@H](O)[C@@H]1NC(=O)[C@H](CCCCN)NC(=O)[C@H](Cc2c[nH]c3ccccc23)NC(=O)[C@H](N(C)C(=O)c2ccccc2)NC(=O)[C@H](Cc2ccccc2)NC(=O)[C@@H](N)CSSC[C@@H](C(=O)O)NC(=O)[C@H](Cc2ccccc2)NC1=O`, for which the concentration for half-maximal inhibition (IC50) in test [1] is > 1000 nM; in test [2], > 10000 nM; in test [3] it was 403 nM; in test [4], > 1000 nM; in test [5], 5.4 nM.
As to `C[C@@H](O)[C@@H]1NC(=O)[C@H](CCCCN)NC(=O)[C@H](Cc2c[nH]c3ccccc23)NC(=O)[C@H](Cc2ccccc2)NC(=O)[C@H](Cc2ccccc2)NC(=O)[C@@H](N)CSSC[C@@H](C(=O)O)NC(=O)[C@H](Cc2ccccc2)NC1=O` (H-CFFWKTFC-OH; disulfide 1-8), the IC50 worked out at 46 nM in test [1], 27 nM in test [2], 41 nM in test [4] and 1.8 nM in test [5].
As for `C[C@@H](O)[C@@H]1NC(=O)[C@H](CCCCN)NC(=O)[C@@H](Cc2c[nH]c3ccccc23)NC(=O)[C@H](Cc2ccccc2)NC(=O)[C@H](Cc2ccccc2)NC(=O)[C@@H](N)CSSC[C@@H](C(=O)O)NC(=O)[C@H](Cc2ccccc2)NC1=O` (H-CFF[dW]KTFC-OH; disulfide 1-8), the IC50 in test [1] turned out to be 14 nM; in test [2] it was 5.3 nM; in test [4] it was 130 nM; in test [5] it was 0.7 nM.
Take `C[C@@H](O)[C@@H]1NC(=O)[C@H](CCCCN)NC(=O)[C@@H](Cc2c[nH]c3ccccc23)NC(=O)[C@H](Cc2ccccc2)NC(=O)[C@H](N(C)C(=O)c2ccccc2)NC(=O)[C@@H](N)CSSC[C@@H](C(=O)O)NC(=O)[C@H](Cc2ccccc2)NC1=O` (stereo in doubt; 4): the IC50 in test [1] is > 1000 nM; in test [2] it was 667 nM; in test [3] it was > 10000 nM; in test [4], 374 nM; in test [5] it was 14 nM.
For `C[C@@H](O)[C@@H]1NC(=O)[C@H](CCCCN)NC(=O)[C@@H](Cc2c[nH]c3ccccc23)NC(=O)[C@H](Cc2ccccc2)NC(=O)[C@H](N(C)C(=O)c2ccccc2)NC(=O)[C@@H](N)CSSC[C@@H](C(=O)O)NC(=O)[C@H](Cc2ccccc2)NC1=O` (stereo in doubt; 5), the results for the IC50 in test [2], in test [4] and in test [5] were > 10000 nM, > 1000 nM and > 1000 nM, respectively.
Take `C[C@@H](O)[C@@H]1NC(=O)[C@H](CCCCN)NC(=O)[C@@H](Cc2c[nH]c3ccccc23)NC(=O)[C@H](N(C)C(=O)c2ccccc2)NC(=O)[C@H](Cc2ccccc2)NC(=O)[C@H](N)CSSC[C@@H](C(=O)O)NC(=O)[C@H](Cc2ccccc2)NC1=O` (stereo in doubt; 7): the concentration for half-maximal inhibition (IC50) in test [1] is > 1000 nM; in test [2], > 10000 nM; in test [3], 725 nM; in test [4], > 1000 nM; in test [5] it was 133 nM.
Regarding `C[C@@H](O)[C@@H]1NC(=O)[C@H](CCCCN)NC(=O)[C@@H](Cc2c[nH]c3ccccc23)NC(=O)[C@H](N(C)C(=O)c2ccccc2)NC(=O)[C@H](Cc2ccccc2)NC(=O)[C@H](N)CSSC[C@@H](C(=O)O)NC(=O)[C@H](Cc2ccccc2)NC1=O` (stereo in doubt; 8), the IC50 was determined as 768 nM in test [1], 447 nM in test [3], 460 nM in test [4] and 5.2 nM in test [5].
Regarding `C[C@@H](O)[C@@H]1NC(=O)[C@H](CCCCN)NC(=O)[C@@H](Cc2c[nH]c3ccccc23)NC(=O)[C@H](N(C)C(=O)c2ccccc2)NC(=O)[C@H](Cc2ccccc2)NC(=O)[C@H](N)CSSC[C@@H](C(=O)O)NC(=O)[C@H](Cc2ccccc2)NC1=O` (stereo in doubt; 9), the half-maximal inhibitory concentration (IC50) in test [3] is > 1000 nM; in test [5], 153 nM.
For the molecule `C[C@@H](O)[C@@H]1NC(=O)[C@H](CCCCN)NC(=O)[C@@H](Cc2c[nH]c3ccccc23)NC(=O)[C@H](N(C)C(=O)c2ccccc2)NC(=O)[C@H](Cc2ccccc2)NC(=O)[C@H](N)CSSC[C@@H](C(=O)O)NC(=O)[C@H](Cc2ccccc2)NC1=O` (stereo in doubt; 10), the half-inhibitory concentration (IC50) in test [1] is 460 nM; in test [2] it was > 1000 nM; in test [3], 382 nM; in test [4], 533 nM; in test [5] it was 3.4 nM.
`C[C@@H](O)[C@@H]1NC(=O)[C@H](CCCCN)NC(=O)[C@@H](Cc2c[nH]c3ccccc23)NC(=O)[C@H](N(C)C(=O)c2ccccc2)NC(=O)[C@H](Cc2ccccc2)NC(=O)[C@H](N)CSSC[C@@H](C(=O)O)NC(=O)[C@H](Cc2ccccc2)NC1=O` (stereo in doubt; 11): the results for the IC50 in test [3] and in test [5] were 136 nM and 31 nM, respectively.
As for `C[C@@H](O)[C@@H]1NC(=O)[C@@H](NC(=O)CCN)NC(=O)[C@@H](Cc2c[nH]c3ccccc23)NC(=O)[C@H](Cc2ccccc2)NC(=O)[C@H](Cc2ccccc2)NC(=O)[C@@H](N)CSSC[C@@H](C(=O)O)NC(=O)[C@H](Cc2ccccc2)NC1=O` (stereo in doubt; 16), the IC50 in test [1] was > 10000 nM; in test [2], > 10000 nM; in test [3], > 1000 nM; in test [4], > 1000 nM; in test [5], > 10000 nM.
Take `C[C@@H](O)[C@@H]1NC(=O)[C@@H](NC(=O)CCN)NC(=O)[C@@H](Cc2c[nH]c3ccccc23)NC(=O)[C@H](Cc2ccccc2)NC(=O)[C@H](Cc2ccccc2)NC(=O)[C@@H](N)CSSC[C@@H](C(=O)O)NC(=O)[C@H](Cc2ccccc2)NC1=O` (stereo in doubt; 17): the IC50 in test [1] is > 10000 nM; in test [2], > 10000 nM; in test [3] it was > 1000 nM; in test [4], > 1000 nM; in test [5] it was > 1000 nM.
As for `CN(C(=O)CO)[C@H]1NC(=O)[C@H](CCCCN)NC(=O)[C@@H](Cc2c[nH]c3ccccc23)NC(=O)[C@H](Cc2ccccc2)NC(=O)[C@H](Cc2ccccc2)NC(=O)[C@@H](N)CSSC[C@@H](C(=O)O)NC(=O)[C@H](Cc2ccccc2)NC1=O` (stereo in doubt; 20), the IC50 in test [1] is 211 nM; in test [2], 45 nM; in test [3] it was > 1000 nM; in test [4] it was > 1000 nM; in test [5], 6.5 nM.
Take `CN(C(=O)CO)[C@H]1NC(=O)[C@H](CCCCN)NC(=O)[C@@H](Cc2c[nH]c3ccccc23)NC(=O)[C@H](Cc2ccccc2)NC(=O)[C@H](Cc2ccccc2)NC(=O)[C@@H](N)CSSC[C@@H](C(=O)O)NC(=O)[C@H](Cc2ccccc2)NC1=O` (stereo in doubt; 21): the IC50 was 389 nM in test [1]; 860 nM in test [2]; > 1000 nM in test [3]; > 1000 nM in test [4]; 38 nM in test [5].
